Data set [1] in a line: log P by shake-flask method. Format: physicochemical. The settings on record: n-octanol/water, rt (23.5° C.), average of 3 trials, read-out: log P (octanol-water partition coefficient). Here is the method:
Determination of log P Value of 3.
The log P (octanol-water partition coefficient) was determined using the shake-flask method. Three determinations were made. A representative procedure is as follows: a 250-mL separatory funnel was charged with a solution of 3 (50.0 mg) in water (50.0 mL) and n-octanol (50.0 mL). The funnel was capped and inverted 100 times. The funnel and contents were left to stand at rt (23.5° C.) for 40 h. Aliquots of both phases were analyzed by UV/VIS (214 nm for the aqueous layer and 218 nm for the octanol layer), and the concentration in each layer was determined using previously generated calibration curves. In the case of the aqueous layer, a 10-fold dilution was necessary prior to measurement. All measurements were run in triplicate. The log P was determined as log ([3]octanol/[3]aqueous), and the average log P value from the 3 trials was −0.87.

Another data set deals with Brine shrimp. The data set is described as follows: brine shrimp toxicity assay. The settings on record: concentrations up to 20 mg/mL. The data set is classed as in vivo. Here is the method:
General procedure for brine shrimp toxicity assays. Sample preparation. Stock solutions of 3 were prepared by dissolving 3 (50.0 mg) in 5.0 HPLC grade water (5.0 mL), (solution A) and 3 (2.50 g) in HPLC grade water (10.0 mL) (solution B). Stock solutions of DMSO were prepared by diluting DMSO (45 μL) with HPLC grade water (5.0 mL) (solution C) and DMSO (2.27 mL) with HPLC grade water (10.0 mL) (solution D).
In each case, 5 replicates were performed. Each replicate was performed in a 2 dram vial marked at the 4 and 5 mL volume points. To each vial was added artificial sea water (3 mL) followed by the appropriate volume of stock solution. For set 1 (1.0 mg/mL), solution A (0.500 mL) or solution C (0.500 mL) was added. For set 2 (5.0 mg/mL), solution B (0.100 mL) or solution D (0.100 mL) was added to each vial. For set 3 (20.0 mg/mL), solution B (0.400 mL) or solution D (0.400 mL) was added to each vial. For set 4 (50.0 mg/mL), solution B (1.00 mL) or solution D (1.00 mL) was added to each vial. […]
Brine shrimp eggs (San Francisco Bay Brand) were hatched in a commercial salt mixture (Instant Ocean). […] The shrimp were counted at t=24 h. Another drop of freshly prepared yeast solution (6 mg in 10 mL sea water) was added, the vials were maintained under illumination, and shrimp were counted at t=48 h. […]

In data set [2] the test system is luc+ bone marrow chimeric C57BL/6 mice. The data set is described as follows: migration of luc+ marrow cells to irradiated lungs of luc+ marrow chimeric mice. Format: in vivo, mouse. The settings on record: in drinking water, after second thoracic irradiation dose. Here is the method: FIG. 14. Pulmonary migration of luc+ marrow cells to irradiated lungs of luc+ chimeric mice. Groups of 30 C57BL/6Tac mice were given 10 Gy TBI then 24 hr. later 1×10^7 luc+ bone marrow cells I.V. At day 63, subgroups received 18 Gy thoracic irradiation. […] Mice were serially imaged for luciferase, as described in the methods.
MMS350 was tested in two mouse models of fibrosis in the C57BL/6J model. In the first system (chimeric mice) C57BL/6 mice were irradiated to a total body dose of 10 Gy, which is known to be lethal for 100% of animals in the absence of bone marrow transplantation. These mice were then transplanted intravenously with luciferase positive C57BL/6J mouse bone marrow. These mice are valuable for measuring the site of hematopoiesis from donor origin marrow since the animals can be imaged for mobilization in a specific imaging system, which detects the luciferase signal. In this assay system, animals are injected with luciferin (the substrate for the enzyme luciferase) bone marrow cells, which contain luciferase (those from the donor marrow strain) metabolize luciferin and produce a […] which is detected in a camera system over the immobilized mice. These same animals can be imaged serially over several weeks-months and followed for migration of luciferase positive cells from bone marrow sites into irradiated sites. […]

SMILES strings stand for the structures. A value given as a limit tells only on which side of the number the result lay.

As to `CC1(C[S+]([O-])CC2(C)COC2)COC1` [compound 3, 3,3′-Sulfinylbis(methylene)bis(3-methyloxetane)], in data set [1], the logP at 40 h was -0.87. Besides, the “mortality after 48 h” value in the data set with Brine shrimp was less than 10%. Besides, the “migration of bone marrow cells into the lungs” value in data set [2] was “significantly reduces migration of bone marrow cells into the lungs”.

The values are drawn from US9546144B2, “Bifunctional compounds” (University of Pittsburgh—of the Commonwealth System of …, priority 2011, dated 2017).
